The values below come from PubChem BioAssay AID743340 (Broad Institute, 2014).

Molecules are shown by their SMILES. Inconclusive results are not listed. The source made the active and inactive calls.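 How the source made its calls: active means compounds whose fitted AC50 for signal loss is at most twice the top valid dose tested; inconclusive means flat curve with 30 to 70% inhibition, or poor fit; inactive means the rest.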

As a reminder, the AC50 is the concentration at which the activity in the assay is half-maximal.

For the first assay, the target named is Leucyl-cystinyl aminopeptidase (Mus musculus) (UniProt Q8C129). Nature of the assay: inhibition of mouse IRAP aminopeptidase activity – biochemical, Leu-AMC fluorescence, cherry-picked samples, set 2, selectivity assay for ERAP1 modulator project, dose response (AID 743340). To be noted: purified IRAP, Leu-AMC cleavage fluorescence, 1 h.
Leucyl-cystinyl aminopeptidase (Mus musculus), sequence (Q8C129 whole entry, looked up): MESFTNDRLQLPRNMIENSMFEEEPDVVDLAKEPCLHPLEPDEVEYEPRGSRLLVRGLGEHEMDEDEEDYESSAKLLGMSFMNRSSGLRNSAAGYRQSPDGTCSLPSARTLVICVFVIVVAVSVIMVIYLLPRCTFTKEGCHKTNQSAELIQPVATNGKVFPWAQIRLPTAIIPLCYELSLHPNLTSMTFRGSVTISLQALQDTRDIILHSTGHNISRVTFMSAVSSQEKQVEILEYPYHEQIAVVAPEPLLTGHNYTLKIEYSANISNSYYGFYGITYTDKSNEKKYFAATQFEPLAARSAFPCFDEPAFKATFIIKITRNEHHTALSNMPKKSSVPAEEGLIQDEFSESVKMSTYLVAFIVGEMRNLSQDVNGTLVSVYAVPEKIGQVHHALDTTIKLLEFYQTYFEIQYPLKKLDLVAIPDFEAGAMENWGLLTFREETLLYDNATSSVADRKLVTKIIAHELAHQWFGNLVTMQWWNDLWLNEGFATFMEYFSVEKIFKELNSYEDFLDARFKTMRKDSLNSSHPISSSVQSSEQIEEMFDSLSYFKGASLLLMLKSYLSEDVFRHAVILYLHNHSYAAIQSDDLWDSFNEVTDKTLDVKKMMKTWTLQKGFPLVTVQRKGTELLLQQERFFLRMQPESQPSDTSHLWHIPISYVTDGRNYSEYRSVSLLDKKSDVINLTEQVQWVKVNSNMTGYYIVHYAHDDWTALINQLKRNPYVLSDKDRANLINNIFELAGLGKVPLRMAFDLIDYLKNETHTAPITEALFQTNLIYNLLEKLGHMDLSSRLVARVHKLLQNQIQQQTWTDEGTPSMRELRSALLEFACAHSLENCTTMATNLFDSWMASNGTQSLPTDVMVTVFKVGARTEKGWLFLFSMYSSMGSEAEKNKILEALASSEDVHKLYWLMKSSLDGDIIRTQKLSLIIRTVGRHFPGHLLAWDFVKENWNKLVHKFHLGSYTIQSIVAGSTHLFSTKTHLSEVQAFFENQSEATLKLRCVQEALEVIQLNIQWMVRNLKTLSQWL
As to `CCCN(C)C[C@@H]1OCCCC[C@@H](C)Oc2ccc(NS(=O)(=O)c3ccc(C)cc3)cc2C(=O)N([C@H](C)CO)C[C@@H]1C`, the AC50 is > 20000 nM (inactive). Still for that read-out and setting: in the case of `CC(C)[C@@H](C(=O)N[C@@H](CCc1ccc(O)cc1)C(=O)O)N(C)C(=O)[C@H](CO)NC(=O)[C@@H](O)[C@H](N)CCCCCCCCl` it was 44.9 nM.

The assay is the same for the next values; noted with them: purified IRAP, Leu-AMC cleavage fluorescence, 1 h; at 5 µM (top of the series).
In the case of `CCCN(C)C[C@@H]1OCCCC[C@@H](C)Oc2ccc(NS(=O)(=O)c3ccc(C)cc3)cc2C(=O)N([C@@H](C)CO)C[C@@H]1C`, the “activity change, negative = inhibition” value is “inactive”.

Staying with this assay, now noted: purified IRAP, Leu-AMC cleavage fluorescence, 1 h; at 5.6 µM (top of the series).
With `C[C@@H]1CCCCO[C@@H](CN(C)Cc2ccc3c(c2)OCO3)[C@@H](C)CN([C@@H](C)CO)C(=O)c2cc(NS(=O)(=O)c3ccccc3)ccc2O1`, the “activity change, negative = inhibition” value is “inactive”. Same read-out and setting: in the case of `COc1ccc(S(=O)(=O)N(C)C[C@@H]2Oc3ncccc3C(=O)N([C@H](C)CO)C[C@@H]2C)cc1` it was “inactive”.

The same assay, now with this note: purified IRAP, Leu-AMC cleavage fluorescence, 1 h; at 10 µM (top of the series).
For the compound `C[C@@H]1CCCCO[C@@H](CN(C)C)[C@H](C)CN([C@@H](C)CO)C(=O)c2cc(NC(=O)Nc3ccc(C(F)(F)F)cc3)ccc2O1`, the “activity change, negative = inhibition” value is “inactive”. The same measure, in the same setting: in the case of `Cc1noc(C)c1S(=O)(=O)N(C)C[C@@H]1OCCCC[C@@H](C)Oc2ccc(NS(=O)(=O)c3cccs3)cc2C(=O)N([C@@H](C)CO)C[C@@H]1C` it was “inactive”.

Staying with this assay, now noted: purified IRAP, Leu-AMC cleavage fluorescence, 1 h; at 11 µM (top of the series).
Regarding `Cc1noc(C)c1NC(=O)Nc1ccc2c(c1)C(=O)N([C@H](C)CO)C[C@@H](C)[C@@H](CN(C)Cc1ccc(C(F)(F)F)cc1)OCCCC[C@@H](C)O2`, the “activity change, negative = inhibition” value is “inactive”. As to `C[C@@H]1CCCCO[C@@H](CN(C)CC2CC2)[C@@H](C)CN([C@H](C)CO)C(=O)c2cc(NS(=O)(=O)c3ccc(Cl)cc3)ccc2O1`, the “activity change, negative = inhibition” value was “inactive”. On the same count and under the same terms, as for `C[C@H](CO)N1C[C@H](C)[C@H](CN(C)Cc2ccc(C(=O)O)cc2)Oc2c(NC(=O)Nc3ccccc3)cccc2C1=O`, the entry is “inactive”; as for `CNC[C@H]1OCCCC[C@@H](C)Oc2ccc(NS(=O)(=O)c3ccc(C)cc3)cc2C(=O)N([C@@H](C)CO)C[C@H]1C`, “inactive”.

`Cc1ccc2nc3c(cc(C(=O)NCc4ccccc4)c(=N)n3CCCn3ccnc3)c(=O)n2c1`: the “activity change, negative = inhibition” value was “inactive”. In the case of `COc1ccc(NC(=O)Nc2ccc3c(c2)C(=O)N([C@@H](C)CO)C[C@@H](C)[C@H](CN(C)Cc2ccc(C(=O)O)cc2)OCCCC[C@H](C)O3)cc1`, the “activity change, negative = inhibition” value was “inactive”. Regarding `C[C@@H]1CCCCO[C@H](CN(C)Cc2ccc(C(=O)O)cc2)[C@H](C)CN([C@@H](C)CO)C(=O)c2cc(NC(=O)Nc3ccc(C(F)(F)F)cc3)ccc2O1`, the “activity change, negative = inhibition” value is “inactive”. On to `Cc1noc(C)c1NC(=O)N(C)C[C@@H]1Oc2c(NC(=O)Nc3ccc(F)cc3)cccc2C(=O)N([C@H](C)CO)C[C@@H]1C`, for which the “activity change, negative = inhibition” value was “inactive”. The same measure, in the same setting: in the case of `N#Cc1c(N2CCNCC2)nc(-c2ccco2)c2c1CCCC2` it was “inactive”. For the compound `CCCN(C)C[C@@H]1OCCCC[C@@H](C)Oc2ccc(NS(=O)(=O)c3cccs3)cc2C(=O)N([C@H](C)CO)C[C@@H]1C`, the “activity change, negative = inhibition” value is “inactive”. Regarding `C[C@H]1CN([C@@H](C)CO)C(=O)c2cccc(NC(=O)Nc3ccc(C(F)(F)F)cc3)c2O[C@@H]1CN(C)C`, the “activity change, negative = inhibition” value was “inactive”. Same read-out and setting: as for `O=C(C[C@@H]1CC[C@@H]2[C@H](COC[C@H](O)CN2C(=O)Nc2cccc(Cl)c2)O1)N1CCCCC1`, the entry is “inactive”; as for `COc1ccc(CN(C)C[C@H]2OCCCC[C@@H](C)Oc3ccc(NS(=O)(=O)c4cccs4)cc3C(=O)N([C@H](C)CO)C[C@H]2C)cc1`, “inactive”; as for `CO[C@@H]1CN(C)C(=O)c2ccc(NC(=O)Nc3cccc(Cl)c3)cc2OC[C@@H](C)NC[C@H]1C`, “inactive”. As for `C[C@H](CO)N1C[C@H](C)[C@H](CN(C)CC2CCCCC2)Oc2c(NC(=O)Nc3ccc(C(F)(F)F)cc3)cccc2C1=O`, the “activity change, negative = inhibition” value was “inactive”.

For the compound `C[C@H]1CN([C@@H](C)CO)C(=O)c2cccc(NC(=O)Nc3ccc(F)cc3)c2O[C@@H]1CN(C)C(=O)Nc1ccc2c(c1)OCO2`, the “activity change, negative = inhibition” value was “inactive”.

Turning to `CCCNC(=O)C[C@H]1CC[C@@H]2[C@H](COC[C@H](O)CN2C(=O)Nc2cccc(Cl)c2)O1`, the “activity change, negative = inhibition” value was “inactive”. The same measure, in the same setting: in the case of `Cc1ccc(S(=O)(=O)Nc2ccc3c(c2)C(=O)N([C@@H](C)CO)C[C@H](C)[C@H](CN(C)C)OCCCC[C@@H](C)O3)cc1` it was “inactive”.
